Measured values published in ChEMBL document CHEMBL3621109, “Probing Mechanisms of CYP3A Time-Dependent Inhibition Using a Truncated Model System” (ACS Med Chem Lett, 2015).

Experiments:
[1] = Inhibition of CYP3A (unknown origin) using midazolam as substrate; type: ADME, Homo sapiens
[2] = Inhibition of CYP3A (unknown origin) using testosterone as substrate; type: ADME, Homo sapiens

SMILES	IC50 [1] [µM]	IC50 [2] [µM]
Cn1ncc(NC(=O)c2ccccc2)c1N1CC[C@H](N)CC(F)(F)C1	5	4.3
Cn1ncc(NC(=O)OCc2ccccc2)c1N1CC[C@H](N)CC(F)(F)C1	7.7	2.5
Cn1ncc(NC(=O)c2ccccc2)c1N1CCCCC(F)(F)C1	0.84	1.7
Cn1ncc(NC(=O)c2ccccc2)c1N1CCC(O)CC(F)(F)C1 (racemic)	> 10	
